ChEMBL document CHEMBL1909046, “DrugMatrix in vitro pharmacology data”

How the values were obtained:
Interstitial collagenase = molecular target: T1, Interstitial collagenase (Homo sapiens, UniProt P03956); format: tissue-based, Rheumatoid synovial fibroblasts;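 note: MMP-1 enzyme inhibition assay using a peptide substrate; in other assays of this panel Not Active means under 50% inhibition at 10 µM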
T1 sequence (P03956 whole entry): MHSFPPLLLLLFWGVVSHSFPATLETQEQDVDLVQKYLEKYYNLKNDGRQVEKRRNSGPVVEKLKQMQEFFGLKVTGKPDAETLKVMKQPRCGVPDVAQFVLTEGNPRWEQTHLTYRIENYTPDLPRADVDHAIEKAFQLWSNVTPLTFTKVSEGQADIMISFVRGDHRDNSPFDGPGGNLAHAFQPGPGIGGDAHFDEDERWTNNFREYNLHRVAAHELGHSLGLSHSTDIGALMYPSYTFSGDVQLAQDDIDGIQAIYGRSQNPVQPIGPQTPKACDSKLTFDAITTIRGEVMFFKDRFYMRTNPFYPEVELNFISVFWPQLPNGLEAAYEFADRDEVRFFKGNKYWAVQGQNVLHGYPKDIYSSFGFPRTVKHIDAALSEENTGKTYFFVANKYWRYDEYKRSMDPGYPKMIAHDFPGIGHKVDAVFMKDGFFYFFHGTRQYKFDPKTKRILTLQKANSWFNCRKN

[1] = molecular target: T2, 3-hydroxy-3-methylglutaryl-coenzyme A reductase (Homo sapiens, UniProt P04035); design: species or system Escherichia coli;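 note: enzyme inhibition assay of HMG-CoA reductase using radiolabeled [14C]HMG-CoA as substrate; in other assays of this panel Not Active means under 50% inhibition at 10 µM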
T2 sequence (P04035 whole entry): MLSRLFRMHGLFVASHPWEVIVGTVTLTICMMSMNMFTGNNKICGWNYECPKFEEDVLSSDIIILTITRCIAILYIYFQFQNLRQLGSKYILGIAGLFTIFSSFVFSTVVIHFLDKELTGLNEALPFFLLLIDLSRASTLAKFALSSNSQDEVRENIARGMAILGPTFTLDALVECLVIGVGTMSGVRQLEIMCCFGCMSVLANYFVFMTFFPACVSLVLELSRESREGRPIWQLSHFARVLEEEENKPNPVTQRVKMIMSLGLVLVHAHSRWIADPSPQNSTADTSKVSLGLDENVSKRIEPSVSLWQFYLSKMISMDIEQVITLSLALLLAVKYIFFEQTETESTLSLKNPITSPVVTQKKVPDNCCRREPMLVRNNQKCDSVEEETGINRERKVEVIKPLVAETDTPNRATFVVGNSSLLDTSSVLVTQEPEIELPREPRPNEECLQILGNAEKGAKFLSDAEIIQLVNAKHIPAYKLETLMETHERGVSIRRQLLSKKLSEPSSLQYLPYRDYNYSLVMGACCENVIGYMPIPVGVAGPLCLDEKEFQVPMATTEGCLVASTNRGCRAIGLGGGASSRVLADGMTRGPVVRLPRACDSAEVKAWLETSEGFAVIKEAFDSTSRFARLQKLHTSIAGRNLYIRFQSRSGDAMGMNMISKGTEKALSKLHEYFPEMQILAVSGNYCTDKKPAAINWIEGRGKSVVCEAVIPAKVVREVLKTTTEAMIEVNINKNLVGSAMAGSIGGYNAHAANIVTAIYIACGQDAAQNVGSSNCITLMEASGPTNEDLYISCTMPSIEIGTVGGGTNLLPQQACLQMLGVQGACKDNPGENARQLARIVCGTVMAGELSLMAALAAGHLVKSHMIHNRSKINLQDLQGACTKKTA

[2] = DRUGMATRIX: Interleukin IL-1 radioligand binding (ligand: [125I] interleukin 1beta); format: cell membranes, Membrane; details: nih3t3; Not Active = under 50% inhibition at 10 µM
[3] = DRUGMATRIX: Atrial Natriuretic Factor (ANF) radioligand binding (ligand: [125I] ANF (rat)); format: cell membranes, Cavia porcellus, Dunkin-Hartley, Adrenal gland, Membrane; details: Not Active = under 50% inhibition at 10 µM
[4] = molecular target: T3, Alpha-1A adrenergic receptor (Rattus norvegicus, UniProt P43140); assay: DRUGMATRIX: Alpha-1A adrenergic receptor radioligand binding (ligand: prazosin); format: cell membranes, Wistar, Submaxillary gland, Membrane; details: Not Active = under 50% inhibition at 10 µM
T3 sequence (P43140 whole entry): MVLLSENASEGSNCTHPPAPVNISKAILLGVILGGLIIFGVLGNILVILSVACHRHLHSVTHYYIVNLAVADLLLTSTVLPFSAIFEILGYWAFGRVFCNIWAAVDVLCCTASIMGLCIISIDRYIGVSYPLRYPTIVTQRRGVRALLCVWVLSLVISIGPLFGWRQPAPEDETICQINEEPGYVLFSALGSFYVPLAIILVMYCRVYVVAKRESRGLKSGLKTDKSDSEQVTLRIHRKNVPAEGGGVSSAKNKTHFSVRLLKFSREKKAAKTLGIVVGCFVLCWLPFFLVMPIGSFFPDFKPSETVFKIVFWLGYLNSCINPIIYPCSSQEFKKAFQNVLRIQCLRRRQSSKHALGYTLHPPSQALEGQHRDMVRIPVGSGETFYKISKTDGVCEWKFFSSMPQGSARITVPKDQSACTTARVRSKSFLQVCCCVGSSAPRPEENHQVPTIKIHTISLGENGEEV

Adenosine receptor A2a = Adenosine receptor A2a (Homo sapiens, UniProt P29274); assay: DRUGMATRIX: Adenosine A2A radioligand binding (ligand: […]); format: cell membranes, HEK293, Membrane; details: hek293; Not Active = under 50% inhibition at 10 µM
Sequence of Adenosine receptor A2a (P29274 whole entry): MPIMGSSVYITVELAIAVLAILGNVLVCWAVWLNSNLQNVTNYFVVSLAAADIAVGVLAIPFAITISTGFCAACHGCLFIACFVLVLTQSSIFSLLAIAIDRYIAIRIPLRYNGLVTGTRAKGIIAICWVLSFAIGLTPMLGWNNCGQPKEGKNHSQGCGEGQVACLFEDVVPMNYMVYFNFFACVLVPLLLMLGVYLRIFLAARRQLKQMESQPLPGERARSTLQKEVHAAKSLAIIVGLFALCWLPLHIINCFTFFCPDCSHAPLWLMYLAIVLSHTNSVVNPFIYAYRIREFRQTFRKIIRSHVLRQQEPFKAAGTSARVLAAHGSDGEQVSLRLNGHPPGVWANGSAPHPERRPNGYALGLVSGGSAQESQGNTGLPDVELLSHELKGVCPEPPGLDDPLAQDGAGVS

[5] = DRUGMATRIX: Calcium Channel Type L, Benzothiazepine radioligand binding (ligand: [3H] Diltiazem); format: cell membranes, Rattus norvegicus, Wistar, Brain, Membrane; details: Not Active = under 50% inhibition at 10 µM

NC[C@@H]1O[C@H](O[C@H]2[C@@H](O)[C@H](O[C@@H]3[C@@H](O)[C@H](N)C[C@H](N)[C@H]3O[C@H]3O[C@H](CN)[C@@H](O)[C@H](O)[C@H]3N)O[C@@H]2CO)[C@H](N)[C@@H](O)[C@@H]1O [FRAMYCETIN]
Not Active: IC50 (Interstitial collagenase) | IC50 [1] | IC50 [2] | Ki [2] | IC50 [3] | Ki [3] | IC50 [4] | IC50 (Adenosine receptor A2a) | IC50 [5] | Ki [5]

C[C@H]([C@](O)(Cn1cncn1)c1ccc(F)cc1F)S(C)(=O)=O [GENACONAZOLE]
Not Active: IC50 (Interstitial collagenase) | IC50 [1] | IC50 [2] | Ki [2] | IC50 [3] | Ki [3] | IC50 [4] | IC50 (Adenosine receptor A2a) | IC50 [5] | Ki [5]

Cc1c(F)c(N2CCNC(C)C2)cc2c1c(=O)c(C(=O)O)cn2C1CC1 (stereo not given) [GREPAFLOXACIN]
Not Active: IC50 (Interstitial collagenase) | IC50 [1] | IC50 [2] | Ki [2] | IC50 [3] | Ki [3] | IC50 [4] | IC50 (Adenosine receptor A2a) | IC50 [5] | Ki [5]

COc1ccccc1OCC(O)CO (stereo not given) [GUAIFENESIN]
Not Active: IC50 (Interstitial collagenase) | IC50 [1] | IC50 [2] | Ki [2] | IC50 [3] | Ki [3] | IC50 [4] | IC50 (Adenosine receptor A2a) | IC50 [5] | Ki [5]

C[C@]12CCC(=O)C=C1CC[C@@H]1[C@@H]2[C@@H](O)C[C@@]2(C)[C@H]1CC[C@]2(O)C(=O)CO [HYDROCORTISONE]
Not Active: IC50 (Interstitial collagenase) | IC50 [1] | IC50 [2] | Ki [2] | IC50 [3] | Ki [3] | IC50 [4] | IC50 (Adenosine receptor A2a) | IC50 [5] | Ki [5]

C/C=C\c1ccc(O)c(OC)c1 [ISOEUGENOL]
Not Active: IC50 (Interstitial collagenase) | IC50 [1] | IC50 [2] | Ki [2] | IC50 [3] | Ki [3] | IC50 [4] | IC50 (Adenosine receptor A2a) | IC50 [5] | Ki [5]

NC[C@H]1O[C@H](O[C@H]2[C@H](O)[C@@H](O[C@H]3O[C@H](CO)[C@@H](O)[C@H](N)[C@H]3O)[C@H](N)C[C@@H]2N)[C@H](O)[C@@H](O)[C@@H]1O [KANAMYCIN]
Not Active: IC50 (Interstitial collagenase) | IC50 [1] | IC50 [2] | Ki [2] | IC50 [3] | Ki [3] | IC50 [4] | IC50 (Adenosine receptor A2a) | IC50 [5] | Ki [5]

CC(C(=O)O)c1ccc(CC2CCCC2=O)cc1 (stereo not given) [LOXOPROFEN]
Not Active: IC50 (Interstitial collagenase) | IC50 [1] | IC50 [2] | Ki [2] | IC50 [3] | Ki [3] | IC50 [4] | IC50 (Adenosine receptor A2a) | IC50 [5] | Ki [5]
